Reference: PubChem BioAssay (NCI)
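Compound exposure: 48 hours, 5 concentrations, 96-well plates. At the GI50, growth is halved. At the TGI there is no net growth.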

How the values were obtained:
Assay in all cases: NCI anticancer screen, dose series, 48 h
A498 renal = system: A498 renal
A549 NSCLC = system: A549 NSCLC
ACHN renal = system: ACHN renal
CCRF-CEM leukemia = system: CCRF-CEM leukemia
COLO 205 colon = system: COLO 205 colon
EKVX NSCLC = system: EKVX NSCLC
HOP-92 NSCLC = system: HOP-92 NSCLC
HT29 colon = system: HT29 colon
K-562 leukemia = system: K-562 leukemia
MCF7 breast = system: MCF7 breast
MDA-MB-435 = system: MDA-MB-435
OVCAR-3 ovarian = system: OVCAR-3 ovarian
OVCAR-5 ovarian = system: OVCAR-5 ovarian
RXF 393 renal = system: RXF 393 renal
SF-295 CNS = system: SF-295 CNS
SK-MEL-2 melanoma = system: SK-MEL-2 melanoma
SK-MEL-5 melanoma = system: SK-MEL-5 melanoma
SNB-19 CNS = system: SNB-19 CNS
SW-620 colon = system: SW-620 colon

Structure (SMILES)	TGI (A498 renal) [µM]	TGI (A549 NSCLC) [µM]	TGI (ACHN renal) [µM]	TGI (CCRF-CEM leukemia) [µM]	TGI (COLO 205 colon) [µM]	TGI (EKVX NSCLC) [µM]	TGI (HOP-92 NSCLC) [µM]	TGI (HT29 colon) [µM]	TGI (K-562 leukemia) [µM]	TGI (MCF7 breast) [µM]	TGI (MDA-MB-435) [µM]	TGI (OVCAR-3 ovarian) [µM]	TGI (OVCAR-5 ovarian) [µM]	TGI (RXF 393 renal) [µM]	TGI (SF-295 CNS) [µM]	TGI (SK-MEL-2 melanoma) [µM]	TGI (SK-MEL-5 melanoma) [µM]	TGI (SNB-19 CNS) [µM]	TGI (SW-620 colon) [µM]	GI50 (A498 renal) [µM]
CCN1CCc2sc3[nH]c(=S)n(C)c(=O)c3c2C1	> 100	> 100	> 100	> 100	> 100	> 100	> 100	> 100	> 100	> 100	> 100	> 100	> 100	> 100	> 100	> 100	> 100	> 100	> 100	–
COc1cc(OC)cc(N(C)Cc2cnc3nc(N)nc(N)c3c2C)c1	> 100	> 100	> 100	> 100	> 100	> 100	> 100	> 100	> 100	> 100	> 100	> 31.6	> 100	> 100	> 100	> 100	> 100	> 100	> 100	–
COc1ccc(/C=N/NC(=O)c2ccccc2Nc2ccccc2C(=O)N/N=C/c2ccc(OC)c(OC)c2)cc1OC	> 100	> 100	> 100	> 100	> 100	> 100	> 100	> 100	> 100	> 100	> 100	> 100	> 100	> 100	> 100	> 100	> 100	> 100	> 100	–
Fc1ccccc1N=c1oc2ccc(Br)cc2cc1-c1nc2ccccc2[nH]1	9.69	23.1	29.8	> 100	> 100	> 41.5	83.8	> 54.8	> 100	> 100	> 64.6	–	> 62.8	21.8	23.2	26.6	35.7	21.9	> 100	–
C=C(Cl)C(Cl)(CBr)CCC(Cl)C(C)C (centres undefined)	14.4	27.1	9.52	> 100	10.3	27.9	3.52	0.955	> 100	2.57	20.6	3.45	23.9	22	6.48	4.29	42.8	14.2	11.8	–
CC(C)NC(=O)OCc1c(COC(=O)NC(C)C)c(-c2ccc[n+](COC(=O)C3CCCCC3)c2)n2c1CCC2	87.5	> 100	> 100	> 100	> 100	> 100	> 100	> 100	> 100	> 100	> 100	> 100	> 100	> 100	> 100	> 100	> 100	> 100	> 100	–
CCC(c1ccc(N(C)C)cc1)C1NC(=S)NC1=O (centres undefined)	> 100	> 100	> 100	> 100	> 100	> 100	> 100	> 100	59.6	> 100	> 100	–	> 100	> 100	> 100	–	> 100	> 100	> 100	–
CC(=O)CC(=O)Nn1c(-c2cccs2)nc2ccc(I)cc2c1=O	43.1	> 100	> 100	> 100	> 100	> 66.1	> 100	> 100	> 100	> 100	> 100	> 78.5	> 100	> 100	> 100	> 100	> 65.5	> 100	> 100	19.9
c1ccc(C2(c3cc4ccccc4[nH]3)OCCO2)cc1	> 100	> 100	> 100	74	65.2	> 100	> 100	> 100	> 100	> 100	> 100	> 100	> 100	> 100	> 100	> 100	57	> 100	> 100	–
CCOc1c(OC)cc(CNNc2nccs2)cc1OC	> 100	> 100	> 100	> 100	> 100	> 100	> 100	> 100	> 100	> 100	> 100	> 100	> 100	> 100	> 100	–	92.7	> 100	> 100	–
O=C(C(Cl)=C(Nc1ccccc1)Nc1ccccc1)C(Cl)Cl	74.5	> 100	> 100	77.6	97.7	70.2	65.6	48.1	86.4	62.5	39.8	79.3	–	56.1	> 100	–	35.6	71.3	57	–
C=CC(C)(C)c1cc([C@@H]2COc3cc(O)ccc3C2=O)c(O)c(OC)c1OC	35.4	52	33.7	> 100	45	58.3	21.6	47.3	> 100	31.8	21.5	23.3	50.4	3.58	27.5	33.3	22.7	30.6	> 100	–
C[C@H]1C(=O)C2=C[C@H]1CCC(=O)[C@]1(C)CCCC(C)(C)[C@H]1C[C@H]2O	> 100	43.6	31.6	75.4	28.4	31.9	54.3	28.6	33.4	27.3	> 100	84.9	> 100	23.6	> 100	> 100	–	> 100	28.2	–
CC(C)Oc1c(O)c2c3c(oc(=O)n3C=CC2c2ccccc2F)c1OC(C)C (centres undefined)	> 100	> 100	> 100	97.6	36.6	> 100	> 100	54.1	> 100	> 100	70	> 100	42.9	81.5	78.1	34.5	34.2	> 100	> 100	–
Cc1[nH]c(=O)nc2c1C(=O)N(C(C)C)C(NC(C)C)S2 (centres undefined)	> 100	> 100	> 100	> 100	> 100	> 100	> 100	> 100	> 100	> 100	> 100	> 100	> 100	> 100	> 100	> 100	> 100	> 100	> 100	–
CN(C)CCCNc1ccc2nnn3c4ccc([N+](=O)[O-])cc4c(=O)c1c23	6.33	3.06	5.92	12.1	5.35	12.9	7.45	7.11	21.9	8.08	12.3	11	9.59	4.25	7.44	15	5.97	15.3	12.9	–
Cc1ccc(-c2c(C#N)c(O)n(NS(=O)(=O)c3ccccc3)c(=O)c2C#N)cc1	> 100	> 100	> 100	> 100	> 100	> 100	> 100	> 100	> 100	> 100	> 100	–	> 100	> 100	> 100	> 100	> 100	> 100	> 100	–
C=CCn1c(=O)c(-c2ccccc2)c(O)c2ccccc21	> 100	> 100	> 100	> 100	> 100	> 100	> 100	> 100	> 100	> 100	> 100	> 100	> 100	> 100	> 100	–	> 100	> 100	> 100	–
CCCCCCc1cc2cc(C(=O)Nc3cccc(C(F)(F)F)c3)c(=N)oc2cc1O	14	10.9	> 34.7	–	21	11.6	2.14	> 100	–	6.47	5.18	10.7	69.7	2.19	14.1	5.68	2.45	> 44.3	> 46.1	–
COC(=O)C(I(OS(=O)(=O)c1ccc(C)cc1)c1ccccc1)=P(c1ccccc1)(c1ccccc1)c1ccccc1	44.7	60.6	32.6	> 100	13.1	54.5	35.4	42.1	> 100	94.5	36.5	33.4	73.1	39.2	87	36.4	26.1	> 100	–	–
